In patent US4760085A, “Use of D,L-and D-carazolol as anti-glaucoma agent” (Boehringer Mannheim GmbH, priority 1983, dated 1988):
Like-named read-outs stand apart in the source and are kept apart here.

Assays:
[1] = Side effects observed in the experiments (species not stated); format: in vivo
[2] = test system: internal eye pressure in glaucoma patients; test: Lowering of internal eye pressure in humans (glaucoma patients), eye drops; format: in vivo
Protocol: (§1) For this purpose, patients were treated once per day with D,L-carazolol eye drops.

[3] = test system: internal pressure of the eye; test: Experiments on lowering of the internal pressure of the eye (species not stated); format: in vivo
[4] = test system: glaucoma patients; test: Compatibility / side effects of eye drops in humans; format: in vivo
Protocol: as §1

[5] = test system: intraocular pressure in water loaded rabbits; test: Intraocular pressure reduction in water loaded conscious rabbits; format: in vivo; settings: one drop of 0.05% solution; for Reduction of the intraocular pressure in water loaded rabbits after administration of 0.05% solution: conscious rabbits, water loading
Protocol: For measurement of an intraocular pressure-reducing effect the intraocular pressure in some test animals (rabbits) were increased by means of water loading (Method: Th. McDonalds et al in Arch. Ophtal. 82, p. 381, 1969). Thereafter the influence of one drop of a 0,05% solution of D,L-carazolol respectively the enantiomeres thereof were measured.

[6] = test system: tachycardic effect of 1 mcg/kg i.v. Isoprenaline (β-blocking); test: β-blocking activity: inhibition of isoprenaline-induced tachycardia in conscious rabbits; format: in vivo; settings: for ED50: Oryctolagus cuniculus, iv, read-out: β-blocking activity ID50 (inhibition dose 50% of the tachycardic effect of 1 mcg/kg i.v. Isoprenaline)
Protocol: D,L-Carazolol, D-carazolol and L-carazolol were tested in respect to a β-blocking and intraocular pressure-reducing activity. The β-blocking activity was measured by means of a tachycardic effect caused by 1 μg/kg i.v. isoprenaline (Dr. Bartsch et al in Drug Research 27 (I), 5, p. 1022 et seq (1977).

[7] = test system: β-blocking action; settings: Circ. Res., 49, 326-336/1981; cited from earlier work
[8] = test system: glaucoma patients; settings: cited from earlier work
[9] = test system: β-blocking action; settings: humans and animals; cited from earlier work
[10] = test system: pressure of the eye in glaucoma patients; settings: glaucoma patients (Krieglstein 1978); cited from earlier work
[11] = D-carazolol, concentration not given
[12] = 0.01% solution of D,L-carazolol

## CC(C)NC[C@@H](O)COc1cccc2[nH]c3ccccc3c12 [D-Carazolol, R(+)-1-carbazolyl-(4)-oxy-3-isopropylaminopropan-2-ol]
[1]; [11]
  systemic side effects typical of β-blockers: without the occurrence of systemic side effects which are typical of β-blockers
[2]; D-carazolol and salts thereof
  lowering of internal eye pressure: significant lowering of the internal eye pressure
[3]; [11]
  lowering of the internal pressure of the eye: significant lowering of the internal pressure of the eye
[4]; D-carazolol and salts thereof
  side effects: in no case were side effects observed
[5]
  Reduction of the intraocular pressure in water loaded rabbits after administration of 0.05% solution: 21%
[5]; water loaded rabbits
  intraocular pressure-reducing activity (in words): most effective compound
[6]
  ED50: 222 µg/kg
[7]
  β-blocking action: no such action was ascertained

## CC(C)(C)NC[C@H](O)COc1nsnc1N1CCOCC1 [Timolol, S-(-)-1-(tert.-butylamino)-3-[(4-morpholino-1,2,5-thiadiazol-3-yl)-oxy]-propan-2-ol]
[8]; after administration of timolol (Vonwil et al. 1981)
  rare but very serious incidents as a result of the β-blockade: asthmatic attacks, heart rhythm disturbances and even some fatal cases
[8]; commercially available 0.5% solution, especially long-term therapy (Nielsen 1981)
  side effects in glaucoma therapy: significant lowering of the blood pressure and the development of dry eyes

## CC(C)NCC(O)COc1cccc2[nH]c3ccccc3c12 (racemic) [D,L-Carazolol, (D,L)-1-carbazolyl-(4)-oxy-3-isopropylaminopropan-2-ol]
[1]; [12]
  undesired side effects: without any undesired side effects being observed
[2]; glaucoma patients, D,L-carazolol eye drops once per day, 0.005 to 0.03%
  lowering of internal eye pressure: significantly lower the internal eye pressure in glaucoma patients
[9]
  β-blocking action: outstanding β-blocking action
[3]; [12]
  lowering of the inner pressure of the eye: significant lowering of the inner pressure of the eye
[4]; humans, 0.01% solution
  known side effects (anaesthetised feeling in the eye or head region, strong burning sensation): did not give rise to any of the known side effects
[4]; humans, eye drops
  compatibility: good compatibility
[5]
  Reduction of the intraocular pressure in water loaded rabbits after administration of 0.05% solution: 12%
[6]
  ED50: 3 µg/kg
[6]; isoprenaline tachycardia
  β-blocking activity (in words): good β-blocking activity

## CC(C)NC[C@H](O)COc1cccc2[nH]c3ccccc3c12 [L-Carazolol]
[5]
  Reduction of the intraocular pressure in water loaded rabbits after administration of 0.05% solution: 5%
[6]
  ED50: 1.6 µg/kg

## CC(C)NCC(O)COc1cccc2ccccc12 (stereo not shown) [propranolol]
[10]
  reduction of the pressure of the eye: can reduce the pressure of the eye in glaucoma patients
